The values that follow come from patent US6555523B1, “Use of cirsiliol and derivatives to treat infections” (priority 1999, dated 2003).

For orientation: IC50 means the concentration that gives 50% inhibition. A high value points to weaker potency.

Molecules are shown by their SMILES. Values after ≈ are worked out from the molar mass of the structure shown. Values joined by “and” are separate entries in the source; they are usually repeats but may differ in a detail not shown here. Equal entries are not always repeated. Marks after values point to notes of the source that are not given here.

Data set [1] in a line: in vitro. Conditions: human, TC50.
For the next data set, the system named is HIV ROJO. As to the kind of experiment: Anti-HIV assay in fresh human PBL (RT activity), Protocol D1. Conditions: Human immunodeficiency virus 1, PBMC.
The nature of data set [2]: Drug solubility observed in the BVDV test. Conditions: BVDV test in MDBK cultures; naringin solvent EtOH.
Data set [3] concerns Bovine Viral Diarrhea Virus. In words: Plaque formation by Bovine Viral Diarrhea Virus in MDBK cultures. The format is cell-based, bovine viral diarrhea virus (BVDV). The settings on record: for % Reduction: plaques; for Number of plaques: Tests 1-3, control 68. On the procedure: HCV in vitro assays. No well-accepted model exists for HCV and new compounds for use in the treatment of HCV are frequently tested for activity against bovine viral diarrhea virus (BVDV), a virus which is related to HCV.
A representative compound according to the present invention, naringin (i.e., 7-neohesperidoside, 5, 4′ dihydroxyflavanone) was tested for anti-BVDV activity in MDBK cells.

The next data set has as its system MDBK cells. In words: Cytotoxicity in MDBK cultures (BVDV test). Conditions: at 10.000 μg/mL, no toxicity at lower concentrations.
The next data set has as its system parainfluenza HA-1. In words: CPE-inhibition (microscopic) assay, Protocol A2. The settings on record: HEp-2, cell Hep2 (cell blank for 3-(4′-bromophenyl) coumarin). It is filed as cell-based, parainfluenza virus.
Data set [4] in a line: Drug cytotoxicity, Protocol A2 (microscopic). Conditions: human, Hep2 cell monolayers.
Data set [5] can be described thus: Drug cytotoxicity by XTT in PBL, Protocol D1. The settings on record: human, TC50, PBMC, printed on each HIV isolate line. Background: Tetrazolium assays rely on reduction of a dye to a coloured formazan, in cell work by metabolically active cells.
Another data set deals with rhinovirus 14. As to the kind of experiment: Anti-picornaviral virus yield assay, Protocol B. The format is cell-based, Rhinovirus type 14. Conditions: Enterovirus.
A further data set has as its system Influenza A. As to the kind of experiment: CPE-inhibition (microscopic) assay, Protocol A2. It is filed as cell-based. The settings on record: Influenza A virus, MDCK.
A further data set concerns toxoplasma. In words: Inhibition of parasite levels in vivo, mice infected with 20 toxoplasma cysts. Set-up: species or system Mice (C57BL/6). An excerpt: Inhibition of parasite levels in vivo. Mice (C57BL/6) were infected with 20 toxoplasma cysts and then treated with cirsiliol or control vehicle (0.1% DMSO). After the treatment, the level of toxoplasma cysts in the brain was reduced (about 1.5-2 fold) by the cirsiliol treatment compared to the control.

Data set [6] in a line: in vitro. The settings on record: dog.
A further data set concerns T, gondii RH. As to the kind of experiment: In-vitro anti Toxoplasma gondii activity in HFF, Protocol C. The format is cell-based. On the procedure: Protocol C—In-vitro testing of anti Toxoplasma gondii activity of Cirsiliol and Naringin. The compounds were tested in an in vitro cell culture assay utilizing human fibroblasts (HFF line) as the host cell. RH strain Toxoplasma gondii that has been transfected with β-galactosidase as a marker for quantitative detection of parasite number (RH Bgal), was used as the challenge organism. The compounds ere dissolved, and then diluted in cell culture medium at least 100 fold for the assays. Controls containing the maximum concentration of solvent used in the assay were run with each test. The active drugs were added and the monolayers were infected immediately at the beginning of each test. Extracellular T. gondii were removed by rinsing the monolayer, and infected host cells remained in contact with the cells for the entire test period. Each test was terminated when at least four parasite doublings could be visually identified in the control monolayers, and parasite numbers were quantitated by standard colorimetric assay for bet galactosidase activity with optical density at 550 nm as the readout. The optical density in this assay has a direct and linear correlation with parasite numbers over a 5-log parasite concentration. Toxicity in the host cells was determined by inspection for cytopathic effects and visual evaluation of cell growth.

The next data set relates to HIV Ba-L. In words: Anti-HIV assay in fresh human monocyte-macrophages (p24 ELISA), Protocol D2. It is filed as cell-based. Conditions: Human immunodeficiency virus 1, BAL, Macrophage, Protocol D2. In general terms: In an ELISA, binding on a coated surface is turned into a signal by an enzyme label.
The test system of the next data set is HIV Merck 144-44. In words: Anti-HIV assay in fresh human PBL (RT activity), Protocol D1. The settings on record: Human immunodeficiency virus 1, PBMC.
A further data set has as its system HIV clade B BR/92/014. The data set is described as above. The settings on record: Human immunodeficiency virus 1, PBMC.
The test system of the next data set is HIV Merck 52-52. Described as above. Conditions: Human immunodeficiency virus 1, PBMC.
Another data set relates to HIV clade E THA/93/073. The description is as above. The settings on record: Human immunodeficiency virus 1, PBMC.
The test system of another data set is HIV Merck 1026-60. The description is as above. Conditions: Human immunodeficiency virus 1, PBMC.
A further data set concerns HIV clade A UG/93/037. Described as above. Conditions: Human immunodeficiency virus 1, PBMC.
Data set [7] can be described thus: Drug cytotoxicity by XTT in monocyte-macrophages, Protocol D2. The settings on record: human; macrophage; Protocol D2; read-out: TC50. It is filed as cell-based.
Description: Protocol D2—Assay in fresh human monocyte-macrophages. […] The cells are placed in a 96-well microtiter plate at 37° C. for 2 hours. Non-adherent cells are removed by vigorously washing six times. […] The cultures are carefully monitored for confluency during this incubation period. Infection of the cells is performed with monocytotropic HIV-1 isolates. […] Monocytemacrophage monolayers are infected at a multiplicity of infection (“MOI”) of 0.1.
(§1) At 2 days post-infection, the medium is decanted and the cultures washed twice with complete medium in order to remove excess virus. Fresh medium alone or medium containing the appropriate concentration of drug is added and incubation continued for an additional five days. XTT staining for cytotoxicity and HIV p24 ELISA assays for production of p24 core antigen are performed on Day 7 post infection. This is performed according the ELISA kit assay manufacturers recommendations. Control curves are generated in each assay to accurately quantitate the amount of capsid protein in each sample. Data is obtained by spectrophotometric analysis at 450 nm using a Molecular Devices Vmax plate reader. P24 concentrations are calculated form the optical density values by use of the Molecular Device software package Soft Max.
For another data set, the system named is HIV Merck 1002-60. As to the kind of experiment: Anti-HIV assay in fresh human PBL (RT activity), Protocol D1. The settings on record: Human immunodeficiency virus 1, PBMC.
The test system of a further data set is HIV clade F BR/92/021. The description is as above. The settings on record: Human immunodeficiency virus 1, PBMC.
Another data set relates to HIV Merck 1022-48. The data set is described as above. It is filed as cell-based. The settings on record: Human immunodeficiency virus 1, PBMC.
Another data set deals with HIV Merck 1064-52. Described as above. Conditions: Human immunodeficiency virus 1, PBMC.

Description for HIV Ba-L: Protocol D2—Assay in fresh human monocyte-macrophages. […] The cells are placed in a 96-well microtiter plate at 37° C. for 2 hours. Non-adherent cells are removed by vigorously washing six times. […] The cultures are carefully monitored for confluency during this incubation period. Infection of the cells is performed with monocytotropic HIV-1 isolates. High titer pools of each of these viruses are harvested from infected cultures of peripheral blood adherent cells and frozen in 1.0 ml aliquots at −80° C. Monocytemacrophage monolayers are infected at a multiplicity of infection (“MOI”) of 0.1.
as §1
Most of the values were based on average values that were obtained from duplicate or triplicate assay wells.
Description for MDBK cells: As a comparison, similar tests were conducted using ribavirin.

Turning to `O=c1cc(-c2ccccc2)oc2ccccc12` [Flavone, flavone], the CC50 in the data set “in vitro [1]” was 173 µM. This compound also had an IC50 in the data set on HIV ROJO of 86.6 µM.
For the compound `NC(=O)c1ncn([C@@H]2O[C@H](CO)[C@@H](O)[C@H]2O)n1` [Ribavirin, ribavirin, reference compound], in data set [2], the drug solubility observation result is listed as “Comment: Positive control drug. Drug was soluble in medium”. The same compound came in with an ID50 in data set [3] (BVDV plaque formation in MDBK, table footnote, unit from the table's concentration head) of 1.24 µg/mL (≈ 5.08 µM). For the same compound, the “% Reduction” value in data set [3] (ribavirin 0.320 μg/mL) was 14.10%; in data set [3] (ribavirin 1.000 μg/mL), 38.99%; in data set [3] (ribavirin 3.200 μg/mL), 93.65%; in [3] (ribavirin 10.000 μg/mL, partial toxicity to the cells), 100.00* %. The “Number of plaques” value was 55 and 62 and 59 in data set [3] (ribavirin 0.320 μg/mL); 36 and 42 and 47 in [3] (ribavirin 1.000 μg/mL); 4 and 5 in data set [3] (ribavirin 3.200 μg/mL); 0 in data set [3] (ribavirin 10.000 μg/mL). Further, in the data set with MDBK cells, the “toxicity to the cells” value is “*Partial toxicity to the cells was observed with no toxicity at lower concentrations”.
Compound `O=c1oc2ccccc2cc1-c1ccc(Br)cc1` [3-(4′-Bromophenyl) coumarin, 3-(4′-bromophenyl) coumarin] gave an IC50 with parainfluenza HA-1 of 6.3 µM. This compound also showed a CC50 in [4] of 100 µM.
In turn, `COc1ccc([C@@H]2CC(=O)c3c(O)cc(O)cc3O2)cc1O` [Hesperetin, hesperetin] came in with a CC50 in data set [5] of 190 µM. The compound also had an IC50 in the data set with HIV ROJO of 134 µM.
Consider `COc1cc2oc(-c3ccc(O)c(O)c3)cc(=O)c2c(O)c1OC` [Cirsiliol, 6,7′-dimethoxy-5,3′,4′-trihydroxyflavone], for which the IC50 was approximately 3 µM with rhinovirus 14; 7.8 µM in the data set on parainfluenza HA-1; more than 200 µM in the data set with Influenza A; approximately 2 µM with T, gondii RH. Besides, the values for the CC50 (in [4]; in “in vitro [6]”) were 12.5 µM and less than 6.3 µM, respectively. For the same compound, the “survival of toxoplasmosis infection” value in the data set with toxoplasma (8 mice, 21-day post infection follow up, 4 of 8 vehicle control mice died by 15 days) is on record as “all 8 cirsiliol treated mice survived”. Further, the “level of toxoplasma cysts in the brain reduced compared to the control” value in the data set with toxoplasma (C57BL/6 mice, 20 toxoplasma cysts, control vehicle 0.1% DMSO) is given as 1.5-2 fold.
Regarding `O=c1cc(-c2ccccc2)oc2ccc(O)cc12` [6-Hydroxyflavone, 6-hydroxyflavone], in “in vitro [1]”, the CC50 is 53.9 µM. This compound also had an IC50 in the data set on HIV ROJO of 41.8 µM.
With `COc1ccc(-c2cc(=O)c3c(OC)c(OC)c(OC)c(OC)c3o2)cc1` [Tangeretin, tangeretin], the IC50 is more than 100 µM in the data set on HIV Ba-L; 14.7 µM with HIV Merck 144-44; 12.3 µM with HIV clade B BR/92/014; 18.2 µM in the data set on HIV Merck 52-52; 15.3 µM in the data set on HIV clade E THA/93/073; 19.8 µM in the data set with HIV Merck 1026-60. Moreover, the IC50 in the data set with HIV clade A UG/93/037 came out at 19.4 µM; in the data set with HIV Merck 1002-60, 9.7 µM; in the data set on HIV clade F BR/92/021, 15.7 µM; with HIV Merck 1022-48, 20.8 µM; in the data set with HIV Merck 1064-52 it was 15 µM. For the same compound, the CC50 at 7 days in data set [7] was more than 100 µM.
